pIC50: −log10 of the molar value.
Legend:
[1] = test system: Jurkat HIV-luciferase clones; assay: Jurkat latency reversal assay; assay type: cell-based; settings: Jurkat latency reversal assay potency; for EC50: Homo sapiens, 48 h, read-out: Jurkat pEC50 (converted)
Protocol: Jurkat HIV-luciferase clones were maintained in RPMI medium 1640 (Gibco by Life Technologies) containing 10% (vol/vol) fetal bovine serum (SAFC/Sigma-Aldrich) and 25 units/mL penicillin, 25 units/mL streptomycin (Gibco by Life Technologies), and were split 1:4 every 3 to 4 days to maintain a cell density of ˜0.3 to 1 million cells/mL. The Jurkat clones were maintained with the addition of 500 nM EFV in the medium. Three Jurkat cell clones (C16, 115, and N6), each harboring one or two integrated HIV proviruses expressing the luciferase reporter gene, were added at equal amounts for a total of 5,000 cells per well to 384-well plates containing compound titrations. Dose-response testing was performed on compounds dissolved in dimethyl sulfoxide (DMSO; Fisher Scientific, Merelbeke, Belgium) dispensed in duplicate serial 3-fold, 14-point titrations using a D300e Digital Droplet Dispenser (Hewlett-Packard) to give final assay concentrations of 10 μM to […] in 50 μL of medium at 0.5% DMSO (vol/vol) final concentration. Cells and compound were incubated at 37° C. for 48 hours, unless otherwise indicated, followed by the addition of 20 μL of Steady-Glo® Luciferase (Promega). Luminescence resulting from the induction of the virally expressed luciferase was measured using an EnVision 2102 Multilabel Plate Reader (Perkin Elmer). Dose-response relationships were analyzed with GraphPad PRISM 6 using a four-parameter logistic regression model to calculate the concentration of compound that gives half-maximal response (EC50) and the maximal percent activation compared to the vehicle control.

cIAP1-BIR3 = cIAP1-BIR3 (Homo sapiens (Human), UniProt Q13490); assay: BIR binding assay (FRET competition), cIAP1 BIR3; settings: for cIAP1 BIR3 vs BIR2 separation window: fold separation (FS) for cIAP1
Sequence of cIAP1-BIR3 (Q13490 253-363): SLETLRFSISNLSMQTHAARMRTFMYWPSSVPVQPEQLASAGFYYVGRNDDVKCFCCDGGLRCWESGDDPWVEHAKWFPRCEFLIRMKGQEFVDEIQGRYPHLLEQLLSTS
Protocol: (§1) The BIR domain binding assays are FRET based competition assays that utilize His-tagged versions of each of the BIR2 and BIR3 domains from cIAP1, cIAP2, and XIAP (each domain assayed separately) each at a custom optimal concentration and a probe, 200 nM SMAC/DIABLO peptide […] labelled with AlexaFluor647 (part #crb 1110326h, Discovery Peptides). The assay is conducted in 50 mM HEPES, […], 1 mM CHAPS, 5% Glycerol, 1 mM DTT, in dI water with a final pH of 7.4 and final volume of 20 uL. Final protein domain concentrations are: 50 nM cIAP1-BIR3 (Part #APT-11-370 Reaction Biology), 100 nM XIAP-BIR3 (Part #APT-11-351 Reaction Biology), 200 nM XIAP-BIR2 (Part #APT-11-470 Reaction Biology), 325 nM cIAP2-BIR2 (Part #APT-11-489 Reaction Biology), 50 nM cIAP2-BIR3 (Part #APT-11-372 Reaction Biology), 325 nM cIAP1-BIR2 (Part #APT-11-487 Reaction Biology). Compounds were plated using a HP Tecan D300 printer in a final total volume of 202 nl and DMSO concentration normalized across the 15-point, 3-fold dilution series. Peptide and probe were prepared at 2× relative to the concentrations above in binding buffer, 10 uL added to the prepared compound plates, and incubated for 60 minutes. LANCE Eu-W1024 (part #AD0401 Perkin Elmer #, vendor) was prepared at 2× concentration in binding buffer for final concentration of 2 nM, 10 uL added to each well, and plates incubated for 30 minutes. Plates were read on an ENVISION multifunction plate reader with […] laser excitation to obtain the 615 nm/665 nm emission ratio as indicative of probe:protein proximity. Data was analyzed using GraphPad PRISM and curves fit using log(inhibitor) vs. response—Variable slope (four […] method to obtain IC50 and pIC50 values.

cIAP1-BIR2 = cIAP1-BIR2 (Homo sapiens (Human), UniProt Q13490); assay: BIR binding assay (FRET competition), cIAP1 BIR2
Sequence of cIAP1-BIR2 (Q13490 173-257): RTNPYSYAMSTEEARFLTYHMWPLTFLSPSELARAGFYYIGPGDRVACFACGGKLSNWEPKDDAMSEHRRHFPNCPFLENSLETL
Protocol: as §1

cIAP2-BIR3 = cIAP2-BIR3 (Homo sapiens (Human), UniProt Q13489); assay: BIR binding assay (FRET competition), cIAP2 BIR3; settings: for cIAP2 BIR3 vs BIR2 separation window: fold separation (FS) for cIAP2
Sequence of cIAP2-BIR3 (Q13489 238-349): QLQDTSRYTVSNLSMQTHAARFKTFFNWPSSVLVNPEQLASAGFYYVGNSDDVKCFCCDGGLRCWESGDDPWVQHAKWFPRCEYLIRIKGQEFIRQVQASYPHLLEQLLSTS
Protocol: as §1

cIAP2-BIR2 = cIAP2-BIR2 (Homo sapiens (Human), UniProt Q13489); assay: BIR binding assay (FRET competition), cIAP2 BIR2
Sequence of cIAP2-BIR2 (Q13489 158-242): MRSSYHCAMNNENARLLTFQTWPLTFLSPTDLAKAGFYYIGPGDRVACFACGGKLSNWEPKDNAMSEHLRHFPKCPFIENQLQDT
Protocol: as §1

XIAP-BIR3 = XIAP-BIR3 (Homo sapiens (Human), UniProt P98170); assay: BIR binding assay (FRET competition), XIAP BIR3
Sequence of XIAP-BIR3 (P98170 241-356): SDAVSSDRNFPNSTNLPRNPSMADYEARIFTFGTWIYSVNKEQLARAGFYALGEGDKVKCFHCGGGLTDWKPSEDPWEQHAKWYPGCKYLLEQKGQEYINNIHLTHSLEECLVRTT
Protocol: as §1

Structure (SMILES)	EC50 [1] [nM]	pIC50 (cIAP1-BIR3)	cIAP1 BIR3 vs BIR2 separation window (cIAP1-BIR3)	pIC50 (cIAP1-BIR2)	pIC50 (cIAP2-BIR3)	cIAP2 BIR3 vs BIR2 separation window (cIAP2-BIR3)	pIC50 (cIAP2-BIR2)	pIC50 (XIAP-BIR3)	cIAP1 BIR3 (pIC50) (cIAP1-BIR3; FRET competition)	cIAP1 BIR2 (pIC50) (cIAP1-BIR2; FRET competition)	cIAP2 BIR3 (pIC50) (cIAP2-BIR3; FRET competition)	cIAP2 BIR2 (pIC50) (cIAP2-BIR2; FRET competition)	XIAP BIR3 (pIC50) (XIAP-BIR3; FRET competition)	Jurkat pEC50 [1]	cIAP1 BIR3 (pIC50) (cIAP1-BIR3; FRET competition binding)	cIAP1 BIR2 (pIC50) (cIAP1-BIR2; FRET competition binding)	cIAP2 BIR3 (pIC50) (cIAP2-BIR3; FRET competition binding)	cIAP2 BIR2 (pIC50) (cIAP2-BIR2; FRET competition binding)	XIAP BIR3 (pIC50) (XIAP-BIR3; FRET competition binding)
C[C@@H]1CN(CC(=O)N2CC(C)(C)c3[nH]c(=O)c(Cc4ccc(Cl)cc4C(F)(F)F)cc32)[C@@H](CN2CCO[C@H](C(=O)NCc3ccc(CNC(=O)[C@@H]4CN(C[C@H]5CN[C@H](C)CN5CC(=O)N5CC(C)(C)c6[nH]c(=O)c(Cc7ccc(Cl)cc7C(F)(F)F)cc65)CCO4)cc3)C2)CN1 [Compound 170, (2S,2′S)-N,N′-(1,4-phenylenebis(methylene)) bis(4-(((2R,5R)-1-(2-(6-(4-chloro-2-(trifluoromethyl)benzyl)-3,3-dimethyl-5-oxo-2,3,4,5-tetrahydro-1H-pyrrolo[3,2-b]pyridin-1-yl)-2-oxoethyl)-5-methylpiperazin-2-yl)methyl)morpholine-2-carboxamide)]	12.6 to 63.1	8.10 to 8.86	+++ (10,000>FS>1,000)	5.00 to 5.50	8.10 to 8.86	+++ (10,000>FS>1,000)	5.50 to 6.00	7.50 to 7.80	–	–	–	–	–	–	–	–	–	–	–
C[C@@H]1CN(CC(=O)N2CC(C)(C)c3[nH]c(=O)c(Cc4ccc(F)cc4)cc32)[C@@H](CN2CCO[C@H](C(=O)NCCCCCCCCCCNC(=O)[C@@H]3CN(C[C@H]4CN[C@H](C)CN4CC(=O)N4CC(C)(C)c5[nH]c(=O)c(Cc6ccc(F)cc6)cc54)CCO3)C2)CN1 [Example 120, (2S,2'S)-N,N′-(decane-1,10-diyl)bis(4-(((2R,5R)-1-(2-(6-(4-fluorobenzyl)-3,3-dimethyl-5-oxo-2,3,4,5-tetrahydro-1H-pyrrolo[3,2-b]pyridin-1-yl)-2-oxoethyl)-5-methylpiperazin-2-yl)methyl)morpholine-2-carboxamide)]	63.1 to 316	7.80 to 8.10	+++ (10,000>FS>1,000)	5.50 to 6.00	7.80 to 8.10	+++ (10,000>FS>1,000)	5.50 to 6.00	7.50 to 7.80	–	–	–	–	–	–	–	–	–	–	–
C[C@@H]1CN(CC(=O)N2CC(C)(C)c3[nH]c(=O)c(Cc4ccc(F)cc4)cc32)[C@@H](CN2CCN(C(=O)c3ccc(/C=C/c4ccc(C(=O)N5CCN(C[C@H]6CN[C@H](C)CN6CC(=O)N6CC(C)(C)c7[nH]c(=O)c(Cc8ccc(F)cc8)cc76)[C@H](C)C5)cc4)cc3)C[C@H]2C)CN1 [Example 20, 1,1′-(2,2′-((3R,3′R,6R,6′R)-(((2R,2′R)-(4,4′-((E)-ethene-1,2-diyl)bis(benzoyl))bis(2-methylpiperazine-4,1-diyl))bis(methylene))bis(3-methylpiperazine-6,1-diyl))bis(acetyl))bis(6-(4-fluorobenzyl)-3,3-dimethyl-1,2,3,4-tetrahydro-5H-pyrrolo[3,2-b]pyridin-5-one)]	12.6 to 63.1	7.50 to 7.80	+ (100>FS>1)	6.00 to 7.65	7.50 to 7.80	++ (1,000>FS>100)	6.00 to 7.65	6.30 to 7.50	–	–	–	–	–	–	–	–	–	–	–
C[C@@H]1CN(CC(=O)N2CC(C)(C)c3[nH]c(=O)c(Cc4ccc(F)cc4)cc32)[C@@H](CN2CCO[C@H](COCCOCCOC[C@@H]3CN(C[C@H]4CN[C@H](C)CN4CC(=O)N4CC(C)(C)c5[nH]c(=O)c(Cc6ccc(F)cc6)cc54)CCO3)C2)CN1 [Example 83, 1,1′-(2,2′-((3R,3′R,6R,6′R)-(((2S,2'S)-(((oxybis(ethane-2,1-diyl))bis(oxy))bis(methylene))bis(morpholine-2,4-diyl))bis(methylene))bis(3-methylpiperazine-6,1-diyl))bis(acetyl))bis(6-(4-fluorobenzyl)-3,3-dimethyl-1,2,3,4-tetrahydro-5H-pyrrolo[3,2-b]pyridin-5-one)]	12.6 to 63.1	7.50 to 7.80	+++ (10,000>FS>1,000)	5.00 to 5.50	7.50 to 7.80	+++ (10,000>FS>1,000)	5.00 to 5.50	7.50 to 7.80	–	–	–	–	–	–	–	–	–	–	–
C[C@@H]1CN(CC(=O)N2CC(C)(C)c3[nH]c(=O)c(Cc4cc(F)c(F)c(F)c4F)cc32)[C@@H](CN2CCO[C@H](C(=O)NCc3ccc(CNC(=O)[C@@H]4CN(C[C@H]5CN[C@H](C)CN5CC(=O)N5CC(C)(C)c6[nH]c(=O)c(Cc7cc(F)c(F)c(F)c7F)cc65)CCO4)cc3)C2)CN1 [Compound 174, (2S,2′S)-N,N′-(1,4-phenylenebis(methylene)) bis(4-(((2R,5R)-1-(2-(3,3-dimethyl-5-oxo-6-(2,3,4,5-tetrafluorobenzyl)-2,3,4,5-tetrahydro-1H-pyrrolo[3,2-b]pyridin-1-yl)-2-oxoethyl)-5-methylpiperazin-2-yl)methyl)morpholine-2-carboxamide)]	0.49 to 12.6	–	+++ (10,000>FS>1,000)	–	–	+++ (10,000>FS>1,000)	–	–	+++ (8.10>pIC50>=7.80)	++ (5.00<pIC50<=5.50)	+++ (8.10>pIC50>=7.80)	++ (5.00<pIC50<=5.50)	++ (7.80>pIC50>=7.50)	–	–	–	–	–	–
C[C@@H]1CN(CC(=O)N2CC(C)(C)c3[nH]c(=O)c(Cc4ccc(F)cc4)cc32)[C@@H](CN2CCO[C@H](COc3ccc(Oc4ccc(OC[C@@H]5CN(C[C@H]6CN[C@H](C)CN6CC(=O)N6CC(C)(C)c7[nH]c(=O)c(Cc8ccc(F)cc8)cc76)CCO5)cc4)cc3)C2)CN1 [Example 55, 1,1′-(2,2′-((3R,3′R,6R,6′R)-(((2S,2'S)-(((oxybis(4,1-phenylene))bis(oxy))bis(methylene))bis(morpholine-2,4-diyl))bis(methylene))bis(3-methylpiperazine-6,1-diyl))bis(acetyl))bis(6-(4-fluorobenzyl)-3,3-dimethyl-1,2,3,4-tetrahydro-5H-pyrrolo[3,2-b]pyridin-5-one)]	–	–	++++ (FS>10,000)	–	–	++++ (FS>10,000)	–	–	–	–	–	–	–	++++ (9.31>pEC50>=7.90)	+ (7.50>pIC50>=6.30)	+ (4.29<pIC50<=5.00)	+++ (8.10>pIC50>=7.80)	+ (4.29<pIC50<=5.00)	++ (7.80>pIC50>=7.50)
C[C@@H]1CN(CC(=O)N2CC(C)(C)c3[nH]c(=O)c(Cc4ccc(F)cc4)cc32)[C@@H](CN2CCC(CCOc3cccc(OCCC4CCN(C[C@H]5CN[C@H](C)CN5CC(=O)N5CC(C)(C)c6[nH]c(=O)c(Cc7ccc(F)cc7)cc65)CC4)c3)CC2)CN1 [Example 108, 1,1′-(2,2′-((3R,3′R,6R,6′R)-((((1,3-phenylenebis(oxy))bis(ethane-2,1-diyl))bis(piperidine-4,1-diyl))bis(methylene))bis(3-methylpiperazine-6,1-diyl))bis(acetyl))bis(6-(4-fluorobenzyl)-3,3-dimethyl-1,2,3,4-tetrahydro-5H-pyrrolo[3,2-b]pyridin-5-one)]	12.6 to 63.1	7.50 to 7.80	–	–	7.50 to 7.80	–	4.29 to 5.00	6.30 to 7.50	–	–	–	–	–	–	–	–	–	–	–
